{"source": "patent US20250230193A1", "about": "“CYCLIC COMPOUND HAVING SELECTIVE KRAS INHIBITORY EFFECT ON HRAS AND NRAS” (CHUGAI SEIYAKU KABUSHIKI KAISHA, priority 2022, published 2025)", "key": {"[1]": {"target": "GDP-bound NRAS wild-type protein (Homo sapiens, UniProt P01111)", "sequence (P01111 whole entry)": "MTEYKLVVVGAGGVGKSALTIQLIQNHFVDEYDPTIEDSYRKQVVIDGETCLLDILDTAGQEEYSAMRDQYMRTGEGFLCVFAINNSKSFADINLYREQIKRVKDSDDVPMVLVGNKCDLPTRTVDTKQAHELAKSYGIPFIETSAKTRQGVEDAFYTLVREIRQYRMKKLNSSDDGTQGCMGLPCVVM", "assay": "Binding to NRAS by surface plasmon resonance (SPR), Single Cycle Kinetics", "settings": "for NRAS/KRAS (ratio of KD value with respect to NRAS to KD value with respect to KRAS): GDP-bound NRAS wild-type vs GDP-bound KRAS wild-type"}, "[2]": {"target": "GDP-bound HRAS wild-type protein (Homo sapiens, UniProt P01112)", "sequence (P01112 whole entry)": "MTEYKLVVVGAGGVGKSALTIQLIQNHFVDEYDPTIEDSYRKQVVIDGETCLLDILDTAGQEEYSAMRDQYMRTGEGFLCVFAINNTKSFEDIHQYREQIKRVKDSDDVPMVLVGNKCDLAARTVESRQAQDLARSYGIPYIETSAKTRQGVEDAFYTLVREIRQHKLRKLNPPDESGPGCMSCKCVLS", "assay": "Binding to HRAS by surface plasmon resonance (SPR), Single Cycle Kinetics", "settings": "for HRAS/KRAS (ratio of KD value with respect to HRAS to KD value with respect to KRAS): GDP-bound HRAS wild-type vs GDP-bound KRAS wild-type"}, "[3]": {"settings": "SPR, GDP-bound wild-type proteins"}}}
{"smiles": "CCC[C@H]1C(=O)N[C@@H]([C@@H](C)CC)C(=O)N(C2CC2)CC(=O)N(C)[C@H]2C/C=C\\CCN(C2=O)[C@@H](Cc2ccc(C)cc2)C(=O)N(C)CC(=O)N[C@@H](CCc2ccc(Cl)c(Cl)c2)C(=O)N2C[C@H](OC(C)C)C[C@H]2C(=O)NC2(CC(C)(C)C2)C(=O)N(C)[C@@H](C2CCCC2)C(=O)N(C)[C@H](C(=O)N(C)C)CC(=O)N1C", "note": "[PP2571]", "values": [{"measurement": "NRAS/KRAS (ratio of KD value with respect to GDP-bound NRAS wild-type protein to KD value with respect to KRAS)", "setting": "[1]; class symbols", "result": "A (a compound having 10 or more and less than 20 is denoted as A)"}, {"measurement": "HRAS/KRAS (ratio of KD value with respect to GDP-bound HRAS wild-type protein to KD value with respect to KRAS)", "setting": "[2]; class symbols", "result": "A (a compound having 10 or more and less than 20 is denoted as A)"}]}
{"smiles": "CCC[C@H]1C(=O)N[C@@H](C2CCCCC2)C(=O)N(C)CC(=O)N(C)[C@H]2C/C=C\\CCN(C2=O)[C@@H](Cc2ccc(C(F)(F)F)cc2)C(=O)N(C)CC(=O)N[C@@H](CCc2ccc(C(F)(F)F)c(Cl)c2)C(=O)N2C[C@H](OCC)C[C@H]2C(=O)NC2(CC(C)(C)C2)C(=O)N(C)[C@@H](CC(C)(C)C)C(=O)N(C)[C@H](C(=O)N(C)C)CC(=O)N1C", "note": "[PP3014]", "values": [{"measurement": "NRAS/KRAS (ratio of KD value with respect to GDP-bound NRAS wild-type protein to KD value with respect to KRAS)", "setting": "[1]; [3]", "result": "AA (a compound having 20 or more is denoted as AA)"}, {"measurement": "HRAS/KRAS (ratio of KD value with respect to GDP-bound HRAS wild-type protein to KD value with respect to KRAS)", "setting": "[2]; [3]", "result": "A (a compound having 10 or more and less than 20 is denoted as A)"}]}
{"smiles": "CCO[C@@H]1C[C@H]2C(=O)NC3(CC(C)(C)C3)C(=O)N(C)[C@@H](C(CC)CC)C(=O)N(C)[C@H](C(=O)N(C)C)CC(=O)N(C)[C@@H](CC3CCC3)C(=O)N[C@@H]([C@@H](C)CC)C(=O)N(C)CC(=O)N(C)[C@H]3C/C=C\\CCN(C3=O)[C@@H](Cc3ccc(C)cc3)C(=O)N(C)CC(=O)N[C@@H](CCc3ccc(C(F)(F)F)c(Cl)c3)C(=O)N2C1", "note": "[PP2156]", "values": [{"measurement": "NRAS/KRAS (ratio of KD value with respect to NRAS to KD value with respect to KRAS)", "setting": "[1]; SPR", "result": "AA (a compound having 20 or more is denoted as AA)"}, {"measurement": "HRAS/KRAS (ratio of KD value with respect to HRAS to KD value with respect to KRAS)", "setting": "[2]; SPR", "result": "A (a compound having 10 or more and less than 20 is denoted as A)"}]}
{"smiles": "CC[C@H](C)[C@@H]1NC(=O)[C@H](CC(C)C)N(C)C(=O)C[C@@H](C(=O)N2CCOCC2)N(C)C(=O)[C@H](C2CCCC2)N(C)C(=O)C2(CCCC2)NC(=O)[C@@H]2CCCN2C(=O)[C@H](CCc2ccc(C(F)(F)F)c(Cl)c2)NC(=O)CN(C)C(=O)[C@H](Cc2ccc(Cl)cc2)N2CCCC[C@@H](C2=O)N(C)C(=O)CN(C)C1=O", "note": "[PP0532]", "values": [{"measurement": "NRAS/KRAS (ratio of KD value with respect to GDP-bound NRAS wild-type protein to KD value with respect to KRAS)", "setting": "[1]; SPR", "result": "C (A compound having a KD ratio of 0.1 or more and less than 3 is denoted as C)"}, {"measurement": "HRAS/KRAS (ratio of KD value with respect to GDP-bound HRAS wild-type protein to KD value with respect to KRAS)", "setting": "[2]; SPR", "result": "B (a compound having 3 or more and less than 10 is denoted as B)"}]}
{"smiles": "CCC[C@H]1C(=O)N[C@@H]([C@@H](C)CC)C(=O)N(C2CC2)CC(=O)N(C)[C@H]2C/C=C\\CCN(C2=O)[C@@H](Cc2ccc(C)cc2)C(=O)N(C)CC(=O)N[C@@H](CCc2cc(F)c(C(F)(F)F)c(F)c2)C(=O)N2C[C@H](OCC)C[C@H]2C(=O)NC2(CC(C)(C)C2)C(=O)N(C)[C@@H](C(CC)CC)C(=O)N(C)[C@H](C(=O)N(C)C)CC(=O)N1C", "note": "[PP2560]", "values": [{"measurement": "NRAS/KRAS (ratio of KD value with respect to GDP-bound NRAS wild-type protein to KD value with respect to KRAS)", "setting": "[1]; class symbols", "result": "AA (a compound having 20 or more is denoted as AA)"}, {"measurement": "HRAS/KRAS (ratio of KD value with respect to GDP-bound HRAS wild-type protein to KD value with respect to KRAS)", "setting": "[2]; class symbols", "result": "A (a compound having 10 or more and less than 20 is denoted as A)"}]}
{"smiles": "CCO[C@@H]1C[C@H]2C(=O)NC3(CC(C)(C)C3)C(=O)N(C)[C@@H](C3CCCC3)C(=O)N(C)[C@H](C(=O)N(C)CC)CC(=O)N(C)[C@@H](COC)C(=O)N[C@@H]([C@@H](C)CC)C(=O)N(C)CC(=O)N(C)[C@H]3C/C=C\\CCN(C3=O)[C@@H](Cc3ccc(C)cc3)C(=O)N(C)CC(=O)N[C@@H](CCc3ccc(C(F)(F)F)c(Cl)c3)C(=O)N2C1", "note": "[PP2507]", "values": [{"measurement": "NRAS/KRAS (ratio of KD value with respect to NRAS to KD value with respect to KRAS)", "setting": "[1]; SPR", "result": "AA (a compound having 20 or more is denoted as AA)"}, {"measurement": "HRAS/KRAS (ratio of KD value with respect to HRAS to KD value with respect to KRAS)", "setting": "[2]; SPR", "result": "A (a compound having 10 or more and less than 20 is denoted as A)"}]}
{"smiles": "CC[C@H](C)[C@@H]1NC(=O)[C@H](CC)N(C)C(=O)C[C@@H](C(=O)N(C)C)N(C)C(=O)[C@H](C2CCCC2)N(C)C(=O)C2(CCC2)NC(=O)CN(CC)C(=O)[C@H](CCc2cc(F)c(C(F)(F)F)c(F)c2)NC(=O)CN(C)C(=O)[C@H](Cc2ccc(C(F)(F)F)cc2)N2CC/C=C\\C[C@@H](C2=O)N(C)C(=O)CN(C)C1=O", "note": "[PP1143]", "values": [{"measurement": "NRAS/KRAS (ratio of KD value with respect to NRAS to KD value with respect to KRAS)", "setting": "[1]; KD ratio, SPR", "result": "A (a compound having 10 or more and less than 20 is denoted as A)"}, {"measurement": "HRAS/KRAS (ratio of KD value with respect to HRAS to KD value with respect to KRAS)", "setting": "[2]; KD ratio, SPR", "result": "A (a compound having 10 or more and less than 20 is denoted as A)"}]}
